“Also recorded” adds a separate entry of the source. Numbered stars: 1 amine (or outer) side, 2 acyl side, 3 side chain; on linkers, the order of the positions; unused ones are H or OH. Square brackets hold non-standard residues; d marks the D form. Ends that are not written are not given here. γGlu = O=C(O)[C@H](CCC(=O)[*:2])N[*:1]
Experiments:
Nrf2 mRNA = Nrf2 mRNA expression level by real-time PCR in Tert-BHP-treated HEK293 cells; format: cell-based; conditions: Tert-BHP 300 μM, peptide 500 μM, 18 hours; for effect on expression of Nrf2 mRNA: FIGS. 5A to 5C; for Nrf2 mRNA expression compared to positive control GSH: vs GSH
Protocol: In the present invention, the antioxidant activity was compared between the 100 types of peptides, and the change in Nrf2 mRNA expression was measured through PCR in order to select the final peptide.
(§1) An HEK293 cell (kidney cell) line was seeded at a density of 6.6×10^5/well in DMEM (Dulbecco's Modified Eagle's Medium) medium on a 6-well plate and cultured at 37° C. under 5% CO2 for 24 hours. The next day, the medium was exchanged with serum and amino-acid-free media, and then the cells were further cultured for 20 hours or longer. The cells were treated with Tert-BHP (300 μM) and 500 μM 100 types of peptides, and then cultured for 18 hours.
RNA was extracted from the cells treated with 100 types of peptides in (1) using TRIzol (Thermo Fisher Scientific). A GoScript™ Reverse Transcription System (Promega, Wisconsin, USA) was used to synthesize cDNA from the RNA. The cDNA was synthesized by performing annealing using 1 μg of RNA, 0.5 μg of an oligo dt primer, 0.5 μg of a random primer and RT-PCR pre-mixture at 25° C. for 5 minutes, extension at 42° C. for 60 minutes, and inactivation at 70° C. for 15 minutes.
(§2) PCR was performed using Maxime™ PCR PreMix (i-StarTaq) (Intron Biotechnology, Korea). Real-time PCR was performed using SsoAdvanced™ Universal SYBR® Green Supermix (Bio-Rad, USA). 100 ng of cDNA, 2 μM (pmol/μl) primers, 10 μl of 2X SsoAdvanced™ Universal SYBR® Green Supermix and DW were added to the PCR plate well. Then, the temperature was cyclically adjusted to 95° C. for 3 minutes, 95° C. for 10 seconds and 58° C. for 40 seconds for a total of 40 cycles. A PCR reaction was performed using a CFX96 Touch™ Real-Time PCR Detection System (Bio-Rad, California, USA), and fluorescence intensity was measured at the end of each cycle.

SOD2 mRNA = SOD2 mRNA expression level by real-time PCR in Tert-BHP-treated HEK293 cells; format: cell-based; conditions: Tert-BHP 300 μM, peptide 500 μM, 18 hours; for effect on SOD2 mRNA expression: FIG. 6; for SOD2 mRNA expression compared to positive control GSH: vs GSH
Protocol: The expression of SOD2 mRNA as another antioxidant factor was determined. The cell line culture, RNA extraction, cDNA synthesis and PCR experiments were performed in the same manner as in Experimental Example 5 above. A detailed description thereof is given below.
as §1, with “and” for “under”
RNA was extracted from the cells treated with 100 types of peptides in (1) using TRIzol (Thermo Fisher Scientific). A GoScript™ Reverse Transcription System (Promega, Wisconsin, USA) was used to synthesize cDNA from the RNA. The cDNA was synthesized by performing annealing with 1 μg RNA, 0.5 μg of an oligo dt primer, 0.5 μg of a random primer, and RT-PCR pre-mixture at 25° C. for 5 minutes, extension at 42° C. for 60 minutes, and inactivation at 70° C. for 15 minutes.
as §2, with “using the” for “using a”

[1] = Reducing power assay (method of Oyaizu); conditions: peptides; vs GSH
Protocol: 3. Reducing Power Assay Method
The reducing power of yeast hydrolysates was measured using the method of Oyaizu (1986). Specifically, a sample (1-5000 μg/ml, 60 μl) dissolved in distilled water was mixed with phosphate buffer (150 μl, 0.2M, pH 6.6) and potassium ferricyanide (K 3 Fe(CN) 6, 150 μl, 1%), followed by reacting at 50° C. for 20 minutes. Further, 150 μl of trichloroacetic acid (10%) was added thereto, followed by centrifugation at 2,000 g for 10 minutes. 150 μl of the supernatant containing the sample was added to 150 μl of DW and FeCl3 (30 μl, 0.1%). The resulting mixture was allowed to react at 25° C. for 10 minutes, and absorbance was measured at 700 nm.
(§3) The DPPH-scavenging ability and reducing power of the fractions of respective yeast hydrolyzates (Preparation Examples 1 to 4) were measured using the same method of measuring DPPH-scavenging ability and reducing power as in Experimental Example 1.

[2] = DPPH-scavenging ability assay; format: biochemical; conditions: peptides; vs GSH
Protocol: 2. DPPH (2,2-Diphenyl-1-Picryl-Hydrazyl-Hydrate) Assay Method
The antioxidant activity due to the DPPH-scavenging ability of yeast hydrolyzates was measured using the methods of Choi Chang-seop et al. (2003) and Shekhar et al. (2014). 20 μl of a sample (1 to 5000 μg/ml) dissolved in distilled water was added to 180 μl of an ethanol solution containing DPPH (0.111 mM). The resulting mixture was allowed to react at 25° C. for 30 minutes, and absorbance was measured at 517 nm. Ascorbic acid was used to create the standard curve, and DPPH-scavenging ability (%) was calculated and expressed by the equation of [(absorbance upon no addition of sample−absorbance of sample)/absorbance upon no addition of sample]×100.
as §3

## γ-GLU-GLN-GLU ([γGlu]-Gln-Glu)
Nrf2 mRNA
  effect on expression of Nrf2 mRNA: improve the expression of Nrf2 mRNA
  Nrf2 mRNA expression compared to positive control GSH: remarkably excellent effect; also recorded: statistically significant activity; also recorded: comparable or superior to GSH
SOD2 mRNA
  effect on SOD2 mRNA expression: increased SOD2 mRNA expression
  SOD2 mRNA expression compared to positive control GSH: remarkably excellent; also recorded: statistically significant activity
[1]
  reducing power of peptide compared to GSH: comparable or superior to GSH
[2]
  DPPH-scavenging ability of peptide compared to GSH: comparable or superior to GSH

## γ-GLU-THR-GLY ([γGlu]-Thr-Gly; also: gamma-glutamyl isopeptide bond (Glu side chain to Thr))
Nrf2 mRNA
  effect on expression of Nrf2 mRNA: improve the expression of Nrf2 mRNA
  Nrf2 mRNA expression compared to positive control GSH: remarkably excellent effect; also recorded: statistically significant activity; also recorded: comparable or superior to GSH
SOD2 mRNA
  effect on SOD2 mRNA expression: increased SOD2 mRNA expression
  SOD2 mRNA expression compared to positive control GSH: remarkably excellent; also recorded: statistically significant activity
[1]
  reducing power of peptide compared to GSH: comparable or superior to GSH
[2]
  DPPH-scavenging ability of peptide compared to GSH: comparable or superior to GSH

## γ-GLU-VAL-CYS ([γGlu]-Val-Cys; also: gamma-glutamyl isopeptide bond (Glu side chain to Val))
Nrf2 mRNA
  effect on expression of Nrf2 mRNA: improve the expression of Nrf2 mRNA
  Nrf2 mRNA expression compared to positive control GSH: remarkably excellent effect; also recorded: statistically significant activity; also recorded: comparable or superior to GSH
SOD2 mRNA
  effect on SOD2 mRNA expression: increased SOD2 mRNA expression
  SOD2 mRNA expression compared to positive control GSH: remarkably excellent; also recorded: statistically significant activity
[1]
  reducing power of peptide compared to GSH: comparable or superior to GSH
[2]
  DPPH-scavenging ability of peptide compared to GSH: comparable or superior to GSH
